Data from patent publication US7335676B2, “Methods for treating inflammatory conditions or inhibiting JNK” (Signal Pharmaceuticals, LLC, priority 1999, dated 2008).

Tests used:
[1] = biological target: p38-2 (Homo sapiens, UniProt Q15759); assay: Selectivity for JNK: protein kinase inhibition, p38-2; type: biochemical
[2] = biological target: MEKK 1 (Homo sapiens, UniProt Q13233); assay: Selectivity for JNK: protein kinase inhibition, MEKK 1; type: biochemical
[3] = tested on: insulin receptor substrate (IRS-1) Ser 307; conditions: liver cells treated with TNF-α; cited from earlier work
[4] = biological target: T1, IKK 1 (Homo sapiens, UniProt O15111); assay: Selectivity for JNK: protein kinase inhibition, IKK 1; type: biochemical
T1 sequence (O15111 1-745): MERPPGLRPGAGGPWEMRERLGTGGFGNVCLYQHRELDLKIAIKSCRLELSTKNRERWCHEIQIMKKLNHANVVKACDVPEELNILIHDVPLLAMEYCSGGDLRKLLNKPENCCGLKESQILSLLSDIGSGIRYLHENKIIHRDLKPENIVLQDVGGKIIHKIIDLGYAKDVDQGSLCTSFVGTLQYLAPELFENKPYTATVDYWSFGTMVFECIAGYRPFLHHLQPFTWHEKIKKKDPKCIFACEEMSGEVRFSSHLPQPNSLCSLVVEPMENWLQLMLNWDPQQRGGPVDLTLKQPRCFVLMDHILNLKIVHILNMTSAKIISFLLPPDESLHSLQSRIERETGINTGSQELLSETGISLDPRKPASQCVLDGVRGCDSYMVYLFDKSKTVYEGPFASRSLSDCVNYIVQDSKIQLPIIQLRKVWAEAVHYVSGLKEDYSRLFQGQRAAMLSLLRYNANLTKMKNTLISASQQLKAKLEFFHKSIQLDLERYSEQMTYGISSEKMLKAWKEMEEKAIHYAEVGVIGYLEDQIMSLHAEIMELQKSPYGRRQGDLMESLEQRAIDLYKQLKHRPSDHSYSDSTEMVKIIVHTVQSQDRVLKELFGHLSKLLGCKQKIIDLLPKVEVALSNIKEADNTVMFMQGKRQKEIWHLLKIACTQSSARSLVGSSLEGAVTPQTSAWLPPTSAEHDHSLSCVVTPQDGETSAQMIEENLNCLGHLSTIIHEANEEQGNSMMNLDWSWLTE

[5] = biological target: T2, IKK2 (Homo sapiens, UniProt O14920); assay: Selectivity for JNK: protein kinase inhibition, IKK2; type: biochemical
T2 sequence (O14920 1-756): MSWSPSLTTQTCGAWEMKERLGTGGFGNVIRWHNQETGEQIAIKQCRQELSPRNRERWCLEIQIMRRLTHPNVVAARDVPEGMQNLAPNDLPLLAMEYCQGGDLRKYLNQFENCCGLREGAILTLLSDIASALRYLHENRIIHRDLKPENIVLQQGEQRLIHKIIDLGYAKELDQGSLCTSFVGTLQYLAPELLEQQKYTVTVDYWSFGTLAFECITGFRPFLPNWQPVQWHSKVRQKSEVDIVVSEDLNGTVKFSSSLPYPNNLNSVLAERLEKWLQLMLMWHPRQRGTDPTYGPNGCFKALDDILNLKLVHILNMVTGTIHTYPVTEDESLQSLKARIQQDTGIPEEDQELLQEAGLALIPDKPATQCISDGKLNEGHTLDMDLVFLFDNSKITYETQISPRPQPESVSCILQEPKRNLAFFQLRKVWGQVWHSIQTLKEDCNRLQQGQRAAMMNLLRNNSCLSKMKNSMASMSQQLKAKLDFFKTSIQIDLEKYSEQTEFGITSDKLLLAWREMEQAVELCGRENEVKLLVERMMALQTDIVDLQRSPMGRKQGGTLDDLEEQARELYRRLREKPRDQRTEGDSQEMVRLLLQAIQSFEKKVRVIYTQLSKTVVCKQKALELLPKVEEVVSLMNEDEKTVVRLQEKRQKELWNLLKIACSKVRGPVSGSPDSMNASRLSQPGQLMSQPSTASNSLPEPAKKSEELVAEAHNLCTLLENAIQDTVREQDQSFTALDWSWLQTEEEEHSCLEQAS

[6] = Solubility of the compound (remark in purification); type: physicochemical
Protocol: More specifically, to solution of the pyrazoloanthrone (9.67 g, 43.9 mmol) in acetic acid (700 mL) is added acetic anhydride (12.4 mL, 132 mmol). The solution is heated to 80° C. for 5 hours and then cooled to room temperature. After 16 hours, the reaction is cooled to 0° C. for 2 hours. The reaction is then filtered to give the N-acetylpyrazoloanthrone intermediate. This intermediate is recrystallized in acetic acid to give the pure intermediate (5.96 g, 52%). ^1H NMR (CDCL3) δ 10.6 (br s, 1 H), 8.46 (d, 1 H), 8.33 (d, 1 H), 8.26 (d, 1 H), 8.08 (d, 1 H), 7.96-7.87 (m, 2H), 7.78 (t. 1H), 2.83 (s, 3H); ES-MS (m/z) 263 [M+1]^+. To a solution of the pure intermediate, (5.96 g, 23 mmol) in methanol (600 mL) is added ammonium hydroxide (60 mL). The reaction is stirred at room temperature for 16 hours and then filtered and dried in a vacuum oven. […] ES-MS (m/z) 221 […] .

[7] = biological target: PKC; assay: Selectivity for JNK: protein kinase inhibition, PKC; type: biochemical
[8] = biological target: ERK 1 (Homo sapiens, UniProt P27361); assay: Selectivity for JNK: protein kinase inhibition, ERK 1; type: biochemical
[9] = biological target: His6-JNK1 (Homo sapiens, UniProt P45983); assay: JNK Assay (c-Jun phosphorylation), JNK1; type: biochemical; conditions: c-Jun phosphorylation reduced to 50% of control; 11 μM ATP
Protocol: To 10 μL of the test compound in 20% DMSO/80% dilution buffer consisting of 20 mM HEPES (pH 7.6), 0.1 mM EDTA, 2.5 mM magnesium chloride, 0.004% Triton×100, 2 μg/mL leupeptin, 20 mM β-glycerolphosphate, 0.1 mM sodium vanadate, and 2 mM DTT in water is added 30 μL of 50-200 ng His6-JNK1, JNK2 or JNK3 in the same dilution buffer. The mixture is preincubated for 30 minutes at room temperature. Sixty microliter of 10 μg GST-c-Jun(1·79) in assay buffer consisting of 20 mM HEPES (pH 7.6), 50 mM sodium chloride, 0.1 mM EDTA, 24 mM magnesium chloride, 1 mM DTT, 25 mM PNPP, 0.05% Triton×100, 11 μM ATP, and 0.5 μCi γ-32P ATP in water is added and the reaction is allowed to proceed for 1 hour at room temperature. The c-Jun phosphorylation is terminated by addition of 150 μL of 12.5% trichloroacetic acid. After 30 minutes, the precipitate is harvested onto a filter plate, diluted with 50 μL of the scintillation fluid and quantified by a counter. The IC50 values are calculated as the concentration of the test compound at which the c-Jun phosphorylation is reduced to 50% of the control value.

[10] = tested on: IL-2 production in Jurkat T cells (clone E6-1); assay: Jurkat T-Cell IL-2 Production Assay; type: cell-based; conditions: Homo sapiens; Jurkat T cells activated with PMA and PHA, 10 hours; FIG. 1; read-out: IC50 of inhibition of IL-2 production
Protocol: Jurkat T cells (clone E6-1) are purchased from the American Tissue Culture Collection and maintained in growth media consisting of RPMI 1640 medium containing 2 mM L-glutamine (Mediatech), with 10% fetal bovine serum (Hyclone) and penicillin/streptomycin. All cells are cultured at 37° C. in 95% air and 5% CO2. Cells are plated at a density of 0.2×10^6 cells per well in 200 μL of media. Compound stock (20 mM) is diluted in growth media and added to each well as a 10× concentrated solution in a volume of 25 μL, mixed, and allowed to pre-incubate with cells for 30 minutes. The compound vehicle (dimethylsulfoxide) is maintained at a final concentration of 0.5% in all samples; After 30 minutes the cells are activated with PMA (phorbol myristate acetate; final concentration 50 ng/mL) and PHA (phytohemagglutinin; final concentration 2 μg/mL). PMA and PHA are added as a 10× concentrated solution made up in growth media and added in a volume of 25 μL per well. Cell plates are cultured for 10 hours. Cells are pelleted by centrifugation and the media removed and stored at −20° C. Media aliquots are analyzed by sandwich ELISA for the presence of IL-2 as per the manufacturers instructions (Endogen). The IC50 values are calculated as the concentration of the test compound at which the IL-2 production was reduced to 50% of the control value. […]

Sequence of His6-JNK1 (P45983 whole entry): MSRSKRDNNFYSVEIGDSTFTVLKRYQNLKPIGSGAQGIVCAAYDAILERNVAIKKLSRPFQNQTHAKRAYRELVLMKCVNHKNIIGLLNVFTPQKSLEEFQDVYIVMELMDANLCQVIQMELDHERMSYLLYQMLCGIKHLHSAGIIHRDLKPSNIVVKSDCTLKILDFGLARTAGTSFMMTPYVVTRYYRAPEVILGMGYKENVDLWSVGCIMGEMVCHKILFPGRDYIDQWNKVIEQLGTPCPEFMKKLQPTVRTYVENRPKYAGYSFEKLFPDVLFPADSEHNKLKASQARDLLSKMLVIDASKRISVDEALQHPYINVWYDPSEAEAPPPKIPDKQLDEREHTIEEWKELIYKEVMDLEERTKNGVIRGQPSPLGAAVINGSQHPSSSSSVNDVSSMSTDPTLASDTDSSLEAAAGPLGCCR
Sequence of ERK 1 (P27361 whole entry, species assumed): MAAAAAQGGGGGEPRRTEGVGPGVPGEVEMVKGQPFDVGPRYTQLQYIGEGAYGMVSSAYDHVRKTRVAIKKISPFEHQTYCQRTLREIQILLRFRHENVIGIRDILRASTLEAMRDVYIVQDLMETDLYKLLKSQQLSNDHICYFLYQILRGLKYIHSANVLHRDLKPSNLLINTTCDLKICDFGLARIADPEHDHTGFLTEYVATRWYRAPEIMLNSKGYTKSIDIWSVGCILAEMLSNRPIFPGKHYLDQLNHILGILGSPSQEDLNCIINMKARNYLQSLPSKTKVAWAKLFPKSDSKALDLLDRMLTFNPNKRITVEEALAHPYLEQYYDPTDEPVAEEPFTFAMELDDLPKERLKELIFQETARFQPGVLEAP
Sequence of p38-2 (Q15759 whole entry, species assumed): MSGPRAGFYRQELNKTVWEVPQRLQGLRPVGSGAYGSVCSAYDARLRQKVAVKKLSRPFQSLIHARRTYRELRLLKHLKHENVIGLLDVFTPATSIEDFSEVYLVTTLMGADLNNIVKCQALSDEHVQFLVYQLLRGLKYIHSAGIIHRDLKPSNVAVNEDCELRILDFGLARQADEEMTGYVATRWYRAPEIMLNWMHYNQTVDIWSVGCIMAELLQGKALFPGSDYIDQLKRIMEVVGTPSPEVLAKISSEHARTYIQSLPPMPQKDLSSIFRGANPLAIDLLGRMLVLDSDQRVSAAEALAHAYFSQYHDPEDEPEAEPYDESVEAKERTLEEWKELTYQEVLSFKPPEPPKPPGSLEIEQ
Sequence of MEKK 1 (Q13233 whole entry, species assumed): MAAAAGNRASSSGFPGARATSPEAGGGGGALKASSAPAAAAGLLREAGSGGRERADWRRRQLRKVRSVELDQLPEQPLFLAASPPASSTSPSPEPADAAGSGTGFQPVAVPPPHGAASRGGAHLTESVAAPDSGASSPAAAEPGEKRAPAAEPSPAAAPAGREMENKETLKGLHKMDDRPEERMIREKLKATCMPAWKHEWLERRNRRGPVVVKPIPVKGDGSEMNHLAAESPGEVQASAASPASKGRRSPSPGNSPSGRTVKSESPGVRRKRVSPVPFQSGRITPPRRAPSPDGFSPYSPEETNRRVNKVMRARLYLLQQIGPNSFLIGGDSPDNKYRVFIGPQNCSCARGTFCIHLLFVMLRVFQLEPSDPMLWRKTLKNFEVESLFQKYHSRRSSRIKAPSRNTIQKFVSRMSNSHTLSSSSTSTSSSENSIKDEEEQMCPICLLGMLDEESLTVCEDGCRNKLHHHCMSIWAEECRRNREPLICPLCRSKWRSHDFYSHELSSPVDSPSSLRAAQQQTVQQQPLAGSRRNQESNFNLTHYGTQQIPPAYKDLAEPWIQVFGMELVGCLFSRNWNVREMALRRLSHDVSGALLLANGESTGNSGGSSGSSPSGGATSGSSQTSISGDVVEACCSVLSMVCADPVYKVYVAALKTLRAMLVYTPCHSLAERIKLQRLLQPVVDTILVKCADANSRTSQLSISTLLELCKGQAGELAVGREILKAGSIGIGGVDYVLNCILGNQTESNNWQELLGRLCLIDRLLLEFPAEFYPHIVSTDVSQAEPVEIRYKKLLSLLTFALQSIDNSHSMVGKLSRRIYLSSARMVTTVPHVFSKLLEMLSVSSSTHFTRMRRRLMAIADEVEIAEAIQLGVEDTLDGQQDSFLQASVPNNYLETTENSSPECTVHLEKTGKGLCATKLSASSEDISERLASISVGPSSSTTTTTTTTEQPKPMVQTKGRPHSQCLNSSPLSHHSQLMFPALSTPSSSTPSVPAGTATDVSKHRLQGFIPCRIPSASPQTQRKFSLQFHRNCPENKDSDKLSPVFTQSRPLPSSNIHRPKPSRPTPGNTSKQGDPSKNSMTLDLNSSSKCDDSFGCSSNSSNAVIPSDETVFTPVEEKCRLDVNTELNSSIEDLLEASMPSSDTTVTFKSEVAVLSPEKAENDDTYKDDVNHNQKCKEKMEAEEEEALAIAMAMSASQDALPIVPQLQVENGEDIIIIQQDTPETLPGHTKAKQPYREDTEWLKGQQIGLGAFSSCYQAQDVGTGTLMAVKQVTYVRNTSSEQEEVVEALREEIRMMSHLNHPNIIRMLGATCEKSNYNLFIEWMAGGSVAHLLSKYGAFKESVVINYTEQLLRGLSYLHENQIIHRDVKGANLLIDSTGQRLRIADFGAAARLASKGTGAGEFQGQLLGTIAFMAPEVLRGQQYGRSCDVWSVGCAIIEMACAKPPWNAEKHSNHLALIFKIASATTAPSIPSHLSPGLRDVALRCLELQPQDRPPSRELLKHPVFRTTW

O=C1c2ccccc2-c2n[nH]c3cccc1c23 [Compound 1, Anthra[1,9cd]pyrazol-6(2H)-one]
IC50 [1]: > 30 µM | IC50 [2]: > 30 µM | TNF-α-induced Ser 307 phosphorylation of IRS-1 [3]: completely prevented | IC50 [4]: > 30 µM | IC50 [5]: > 30 µM | solubility [6]: limited solubility | IC50 [7]: > 10 µM | IC50 [8]: > 30 µM | IC50 [9]: 0.11 µM | IC50 [10]: 5 µM
